Source: patent US7585637B2, “Estrogen related receptor, ERRα, a regulator of bone formation” (priority 1999, dated 2009)

Tests used:
ERRα mRNA = ERRα mRNA expression (Northern blot) in RC cells treated with hormones or growth factors; type: cell-based, rat; settings: for effect of acute exposure on ERRα mRNA levels: 24 hours beginning at day 9 or day 15 (E2, D3) or day 7 and day 15 (TGFβ); for stimulation of ERRα mRNA expression at times later than day 6 / stimulation (increase) of ERRα mRNA expression: RC cells treated continuously; for stimulation (increase) of ERRα mRNA expression: E2 10^−8M, D3 10^−9M, TGFβ 10^−10 M
Description: (§1) Cells were enzymatically isolated from the calvaria of 21 d Wistar rat fetuses by sequential digestion with collagenase as described previously (Bellows, 1986). Cells obtained from the last four of the five digestion steps (populations II-V) were pooled and plated in T-75 flasks in α-MEM containing 15% heat-inactivated FBS (Flow Laboratories, McLean, Va.) and antibiotics comprising […] penicillin G (Sigma Chemical Co., St. Louis, Mo.), […] gentamycin (Sigma), and […] fungizone (Flow Laboratories). After 24 h incubation, attached cells were washed with PBS to remove nonviable cells and other debris, and then collected by trypsinization using 0.01% trypsin in citrate saline. Aliquots were counted with a Coulter Counter (Coulter Electronics, Hialeah Fla.), and the remaining cells were resuspended in the standard medium described above. The resuspended cells were plated into 100 mm tissue culture dishes at 10^5 cells/dish, into 35 mm tissue culture dishes at 2×10^4/dish and in 24 wells plates at 10^4 cells/well. […] Medium was changed every 2 days. All dishes were incubated at 37° C. in a humidified atmosphere in a 95% air/5% CO2 incubator.
Total RNA was extracted with guanidine from RC cells at different times of the culture corresponding to different stages of proliferation, differentiation and bone nodule formation (Current Protocols in Molecular Biology, vol. 1, 1996). Northern blots were prepared and hybridized with a 750bp fragment corresponding to the rat 3′ UTR of ERRα according to standard procedures (Chirgwin et al, 1979). Rat α1 COLL-I (Genovese et al.) was a 900bp cDNA PstI fragment containing the entire 3′ noncoding region and one-half of the C-terminal of the propeptide of the α1 chain of type I. Rat bone/liver/kidney ALP (Noda et al., 1987) was a 600 bp cDNA EcoRI fragment obtained by digesting pRAP54 with BssHII-XhoI to remove 1.8 kb of the 5′ region and religating the blunt ends. Rat OPN was a 700 bp cDNA BamHI-EcoRI fragment obtained by digesting the full length cDNA with PvuI to remove 800 bp of 5′ region and ligating the blunt ended fragment into SmaI cut pGEM-7Zf(+) vector (Promega, Madison, Wis.). Rat OCN was a partial cDNA containing 350 bp of the 3′ UTR isolated with OCN-specific primers from a λgt11 library prepared from ROS 17/2.8 cells, rat BSP was a partial cDNA containing 500bp of 3′ region isolated with BSP-specific primers from a λgt11 library prepared from RC cells forming bone nodules, and rat L32 was generated from RC cell mRNA by PCR using specifics primers; the identities of the OCN, BSP and L32 probes were confirmed by sequencing (Liu et al., 1994).

[1] = system: primary rat calvaria (RC) cells; assay: Cell number (cell counting) in RC cell cultures treated with ERRα antisense/sense oligonucleotides; type: cell-based
Description: as §1
For cell growth analysis, the cell layers were rinsed in PBS, released with trypsin and collagenase (1:1, vol/vol, of solutions described above), and the harvested cells were counted electronically. Results are plotted as the average of three counts for each of three dishes for control and pcDNA3-ERRα or three wells for each concentration of antisense or sense primers used.
(§2) The resuspended RC cells were plated in 24 wells plates at 10^4 cells/well. Antisense oligonucleotide inhibition of ERRα expression was accomplished with a 20-base phosphorotbioate-modified oligonucleotide, localized to the A/B domain. The ERRα antisense oligonucleatide sequence was: 5′[…]-3′(SEQ ID NO:30). Control dishes were treated with the complementary sense oligonucleotide or no oligonucleotide. Preliminary experiments were done to determine effective oligonucleotide concentrations that were not toxic. […] Medium was changed every 2 days and fresh oligonucleotides were added. mRNA was collected at day 6 for the proliferation experiments and at day 15 for the differentiation experiments. Nodules were counted at 15 days.

ERRα = assay: Immunocytochemistry for ERRα on bone nodules after oligonucleotide treatment; type: cell-based, rat; settings: 24 h of treatment; 1 μM
Description: Immunolabelling of cultures was done essentially as described previously (Turksen, 1991; Turksen, 1992). Cultures were rinsed with PBS, fixed with 3.7% formaldehyde in PBS and permeabilized with methanol at −20° C. Frozen sections were fixed 10 min in cold acetone. Paraffine sections were treated deparaffined in xylene, then rehydrated in 100%, 95% and 70% ethanol and water. After rinsing, cells in dishes or frozen, paraffine sections were incubated for 1 h at room temperature with 10% normal serum in PBS for ERRα and ERα and in 3% BSA in PBS (denaturated) for ERβ OCN, ALP, OPN, and BSP. After rinsing, cells or sections were incubated for 1.5 hours with appropriate dilutions of primary antibodies (1/50, anti-ERRα; anti-ERα or anti-ERβ (MC-20 or Y-19, respectively; Santa Cruz Biotechnology, Inc))(Shim et al, 1999; Saji et al, 2000; Tremblay et al 1999). The anti-rat OCN antiserum was kindly provided by Dominique Modrowski (INSERM U349, Hopital Lariboisiere, Paris, France) and used at 1/100 dilution. The anti-OPN MPIIIB10) and anti-BSP (WWVIDI) antibodies were purchased from the Hybridoma Bank (Iowa City, Iowa) and used at a 1/800 and 1/500 dilution respectively. […]

[2] = system: ALP, BSP, OPN, OCN, cbfa1, COLLI, Cyclin D1, c-Fos, Bcl2, Bax; assay: RT-PCR of osteoblast, proliferation and apoptosis markers in antisense-treated RC cells; type: cell-based, rat
Description: Samples of total cellular RNA (1.5-5 μg) were reverse-transcribed using oligo dT and the first strand synthesis kit of Superscript™ II, Gibco BRL. PCR was performed with specific primers specific for ERRα. Primers, located in different exons, were as follows: […]
Osteoblast-associated and other markers were also amplified by PCR using specific primers for rat OCN, OPN, ALP, BSP, Cbfa1, COLL I (collagen type I α chain), C-fos, Cyclin D1, Bax and Bcl-2. PCR was done for 25 cycles (94° C. for 1 min, 55° C. for 1 min, 72° C. for 1 min and a final elongation step of 7 min at 72° C.) for OCN, OPN, ALP, BSP, L32, Bax and 30 cycles for Bcl-2, 32 cycles for c-Fos, 35 cycles for Cyclin D1 and Cbfa1 (with annealing temperatures of 58° C. and 62° C. respectively and 23 cycles for COLLI with annealing temperature of 59° C.
as §2

[3] = system: primary rat calvaria (RC) cells; assay: Mineralized bone nodule formation (von Kossa) in RC cell cultures treated with antisense/sense oligonucleotides; type: cell-based; settings: for decrease in mineralized bone nodule formation: treated day 5 to day 11; for decrease in mineralized bone nodule number: treated days 1-6 then normal differentiation medium, day 15
Description: as §1
For quantification of nodule formation, dishes or wells were fixed and stained by the Von Kossa technique and bone nodules were counted on a grid (Bellows et al., 1986; Bellows and Aubin, 1989). Results are plotted as the mean number of nodules±SD of three wells for controls and each concentration of antisense or sense primers and five dishes for pcDNA3 control and pcDNA3-ERRα.
as §2

[4] = treated days 1-6, day 15, vs control or sense-treated

Q: With PTH-1-34: 1-34 PTH (Sigma) as the compound, how does the “decrease of ERRα after acute exposure” value (ERRα mRNA; acute exposure at day 7) read?
A: Its value is 25%.

Q: And the “decrease of ERRα after acute exposure” value (ERRα mRNA; acute exposure at day 16)?
A: Its value is 33%.

Q: And the “inhibition of ERRα” value (ERRα mRNA; continuous 10^−11 M, day 6)?
A: Its value is 15%.

Q: What about the “increase of ERRα” value (ERRα mRNA; continuous 10^−11 M, day 12) of the same compound?
A: The value was 20%.

Q: What about the “inhibition of ERRα” value (ERRα mRNA; continuous 10^−11 M, day 15) of the same compound?
A: Its value is 26%.

Q: With `CCCCC[C@H](O)/C=C/[C@H]1[C@H](O)CC(=O)[C@@H]1C/C=C\CCCC(=O)O` [PGE2] as the compound, how does the “effect on ERRα expression” value (ERRα mRNA; RC cells, PGE2 10^−9 M, Dex) read?
A: Its value is “Neither PGE2 nor Dex had any significant effect”.

Q: For TGFβ, which “effect of acute exposure on ERRα mRNA levels” value (ERRα mRNA) is on record?
A: The value was “no effect”.

Q: And the “stimulation of ERRα mRNA expression at times later than day 6” value (ERRα mRNA)?
A: Its value is “not later”.

Q: What about the “stimulation (increase) of ERRα mRNA expression” value (ERRα mRNA; day 6) of the same compound?
A: The value was 400%.

Q: With `C=C1/C(=C\C=C2/CCC[C@]3(C)[C@@H]([C@H](C)CCCC(C)(C)O)CC[C@@H]23)C[C@@H](O)C[C@@H]1O` [D3, 1,25(OH)2 vitamin D3] as the compound, how does the “effect of acute exposure on ERRα mRNA levels” value (ERRα mRNA) read?
A: Its value is “no effect”.

Q: And the “stimulation of ERRα mRNA expression at times later than day 6” value (ERRα mRNA)?
A: The value was “not later”.

Q: What about the “stimulation (increase) of ERRα mRNA expression” value (ERRα mRNA; day 6) of the same compound?
A: Its value is 47%.

Q: Which results are given for “5′TCACCGGGGGTTCAGTCTCA-3′(SEQ ID NO:30) (all phosphorothioate, sugars by position and methylation of C not given here) [antisense oligonucleotide]”?
A: decrease in cell number ([1]; RC cells treated days 1-6, counted at day 6, 1 μM, vs sense or untreated controls): 30%; decrease in cell number ([1]; RC cells treated days 1-6, counted at day 6, 2 μM, vs sense or untreated controls): 40%; decrease in cell number ([1]; treated day 5 to day 11, by day 15, 1 μM): 19%; decrease in cell number ([1]; treated day 5 to day 11, by day 15, 2 μM): 35%; ERRα detection in bone nodules (ERRα): almost undetectable; ALP expression ([2]; treated day 5 to day 11): not affected; BSP expression ([2]; treated day 5 to day 11): decreased; COLLI expression ([2]; treated day 5 to day 11): not affected; OCN expression ([2]; treated day 5 to day 11): decreased; OPN expression ([2]; treated day 5 to day 11): not affected; cbfa1 expression ([2]; treated day 5 to day 11): decreased; ALP expression ([2]; treated days 1-6, day 6): not significantly affected; BSP expression ([2]; treated days 1-6, day 6): reduced significantly; Bax expression ([2]; treated days 1-6, day 6): not significantly affected; Bcl2 expression ([2]; treated days 1-6, day 6): not significantly affected; COLLI expression ([2]; treated days 1-6, day 6): not significantly affected; Cyclin D1 expression ([2]; treated days 1-6, day 6): reduced but it did not reach statistical significance; OPN expression ([2]; treated days 1-6, day 6): not significantly affected; c-Fos expression ([2]; treated days 1-6, day 6): not significantly affected; cbfa1 expression ([2]; treated days 1-6, day 6): reduced significantly; COLLI expression ([2]; treated days 1-6, day 15): not significantly altered; OCN expression ([2]; treated days 1-6, day 15): not significantly altered; OPN expression ([2]; treated days 1-6, day 15): not significantly altered; ALP expression [2, 4]: remained lower; BSP expression [2, 4]: remained lower; ALP expression ([2]; treated days 9-15): not BSP, COLLI or ALP were decreased; BSP expression ([2]; treated days 9-15): not BSP, COLLI or ALP were decreased; COLLI expression ([2]; treated days 9-15): not BSP, COLLI or ALP were decreased; OCN expression ([2]; treated days 9-15): decreased; OPN expression ([2]; treated days 9-15): decreased; decrease in mineralized bone nodule formation ([3]; 0.5 μM): 30%; decrease in mineralized bone nodule formation ([3]; 1 μM): 60%; decrease in mineralized bone nodule formation ([3]; 2 μM): 100%; decrease in mineralized bone nodule number ([3]; 1 μM): 29%; decrease in mineralized bone nodule number ([3]; 2 μM): 45%; decrease in the number of mineralized bone nodules formed ([3]; treated days 9-15, 1 μM): 17%; decrease in the number of mineralized bone nodules formed ([3]; treated days 9-15, 2 μM): 27%; surface area covered by bone nodules that did form ([3]; treated days 9-15, compared to control cultures): greater surface area

Q: Which “effect of acute treatment on ERRα expression level” value (ERRα mRNA; 24 hour acute treatment of RC cells at day 9 or day 15) does the source give for `C[C@@H]1C[C@H]2[C@@H]3CCC4=CC(=O)C=C[C@]4(C)[C@@]3(F)[C@@H](O)C[C@]2(C)[C@@]1(O)C(=O)CO` [Dex, dexamethasone] here?
A: The value was “no effect”.
